Here are results for two molecules from US9518008B2, “(1S,2S,3S,4R)-3-[(1S)-1-acetylamino-2-ethyl-butyl]-4-uanidino-2-hydroxyl-cyclopentyl-1-carboxylic acid hydrates pharmaceutical uses thereof” (Institute of Pharmacology and Toxicology Academy of …, priority 2007, dated 2016).

Read-outs that look alike come from different tables or passages of the source.

A short description of series [1]: Determination of hygroscopicity (high humidity test). In kind it is physicochemical. The protocol: The hygroscopicity of the compound of the invention can be tested by a standard hygroscopicity test method. For example, the compound is stored in a sealed vessel at room temperature at a relative humidity of 92.5%, 80% or 75%, and the change in moisture content of the compound is tested by sampling at regular intervals.
At the 5th and 10th days, the products were sampled and determined in aspect of important items relating to stability investigation. […] If the weight gain of a product due to moisture absorption was more than 5%, the product was further experimented according to the same method under a relative humidity of 75%±5%. If the weight gain of a product due to moisture absorption was less than 5%, and other items thereof under investigation met the relevant requirements, no more experiment was needed. The humidity-constant condition could be achieved by placing a saturated saline solution at the lower part of a sealed vessel, e.g., a desiccator, and a NaCl saturated solution (15.5-60° C., a relative humidity of 75%±1%) or a KNO3 saturated solution (25° C., a relative humidity of 92.5%) may be selected according to the requirement of different relative humidity.

Series [2] has as its system influenza virus strain FM1 (H1N1). Nature of the series: Anti-influenza activity in infected mice (survival). Particulars: 5 times, 14th day after infection. Format: in vivo, mice (BALB/C). How it is done:
A virus drip is prepared typically by including 500 pfu (plaque forming unit) of mice-compliance influenza virus strain in 50 μl phosphate buffer (containing 0.42% bovine serum albumin), and then dropped into nasal cavity of mice to infect them (BALB/C, female, aged 5-6 weeks, weighted 20 g). The compound of the invention is suspended in physiological saline to obtain different doses, typically from 2.5 mg/kg to 40 mg/kg, and is administered to the mice at different time before and after the viral infection, typically administered by intraperitoneal injection for 5 times, i.e., 1 hour, and 2, 3, 4, 5 days after the viral infection. The assay is performed by using 8 or 12, typically 10 mice. The result is expressed by the ratio of the number of survival mice the 14th day after the viral infection to the number of the mice in assay.
A solution was prepared by including 500 pfu (plaque forming unit) of mice-compliance influenza virus strain FM1 (H1N1) in 50 μl phosphate buffer (containing 0.42% bovine serum albumin), and then dropped into nasal cavity of mice (BALB/C, female, aged 5-6 weeks, weighted 20 g) to infect them with an infective dose of 23.7LD50. The compound of the invention was suspended in physiological saline, and was administered in doses of 2.5 mg/kg, 5 mg/kg, 10 mg/kg, 20 mg/kg to the mice by intraperitoneal injection for 5 times, i.e., 1 hour, and 2, 3, 4, 5 days after the viral infection, respectively. The assay was performed by 10 mice. The result was expressed by the ratio of the number of survival mice the 14th day after the viral infection to the number of the mice in assay.

A short description of series [3]: Stability of RWJ270201 in aqueous solution. In kind it is physicochemical. To be noted: as shown by study.
For series [4], the system named is NA of 7 influenza A virus stains. Particulars: 7 influenza A virus strains; cited from earlier work.
In series [5] the test system is NA of 4 influenza B virus strains. Particulars: cited from earlier work.
Series [6] has as its system influenza virus strain A/HongKong/156/97 (H5N1). Particulars: cited from earlier work.
Series [7] deals with influenza virus strain B/Hong Kong/5/72. Particulars: 1 mg/kg/day; cited from earlier work.
Series [8] deals with influenza virus strain A/Bayern/07/95 (H1N1). To be noted: 10 mg/kg/day; cited from earlier work.
Series [9] concerns influenza virus strain A/NWS/33 (H1N1). To be noted: 10 mg/kg/day; cited from earlier work.
For series [10] the following is noted: rats, 1000 mg/kg/day for 5 days; cited from earlier work.
The nature of series [11]: Determination of solubility. Particulars: Solvent: Water; 25±2° C. How it is done:
According to the invention, the solubility of the compound of the invention can be tested by using a standard solubility test method.
While vigorously stirring for 30 seconds every 5 minutes, the dissolution of the powder was observed within 30 minutes.

The mark [12] stands for this setting: Relative humidity 92.5%, 25° C.

Turning to `CCC(CC)[C@H](NC(C)=O)[C@H]1[C@H](O)[C@@H](C(=O)O)C[C@H]1NC(=N)N` [Anhydrous, (1S,2S,3S,4R)-3-[(1S)-1-acetylamino-2-ethyl-butyl]-4-guanidino-2-hydroxy-cyclopentyl-1-carboxylic acid, reference compound], the “Hygroscopicity at the 5th day” value was determined as 7.23% in [1] (Relative humidity 75%) and 8.38% in [1] (setting [12]). In addition, the results for the “Hygroscopicity at the 10th day” value in series [1] (Relative humidity 75%) and in series [1] (setting [12]) were 12.88% and 13.53%, respectively. Moreover, the “hygroscopicity” value in series [1] (as shown by study) is given as “easily hygroscopic”. In series [1] (ten-day observation test, sealed vessel, room temperature, high relative humidity), the weight gain entry is “about 13.53%”. The Survival number in series [2] (2.5 mg/kg intraperitoneal) was 5/10; in series [2] (5.0 mg/kg intraperitoneal) it was 7/10; in series [2] (10 mg/kg intraperitoneal), 7/10; in series [2] (20 mg/kg intraperitoneal), 9/10. The Survival rate in series [2] (2.5 mg/kg intraperitoneal) is 50%; in [2] (5.0 mg/kg intraperitoneal), 70%; in series [2] (10 mg/kg intraperitoneal), 70%; in [2] (20 mg/kg intraperitoneal) it was 90%; in series [6] (group of 10 mg/kg/day), “up to 100%”; in series [6] (mouse, in vivo, 0.1 mg/kg/day), “up to 70%”. The “stability in aqueous solution” value in series [3] is recorded as “unstable in aqueous solution”. Moreover, the IC50 – broadly, the point on the concentration scale where inhibition reaches its midpoint – in series [4] was 0.1 to 1.4 nM; in series [5], 0.6 to 11 nM. Besides, the figures for the death rate result in series [6] (infected mice), in series [7] and in series [9] were “markedly reduce the death rate”, “reduce the death rate” and “reduce the death rate”, respectively. In addition, in [6] (infected mice), the “diffusion of virus to brain tissue” value is “prevent the diffusion of virus to brain tissue”. Also, the “virus titer in lung tissue” value in series [6] (infected mice) is recorded as “markedly reduce virus titer in lung tissue”. The arterial oxygen saturation entry in [7] is listed as “prevent the reduction in arterial oxygen saturation”. In addition, the “efficacy compared with oseltamivir” value in [7] is recorded as “more effective than oseltamivir”. The lung consolidation entry in series [7] is recorded as “inhibit lung consolidation”. For the same molecule, the effect on infection entry in series [8] is “effectively antagonize the infection”. For the same molecule, in [10], the toxic side effect result is reported as “no toxic side effect was found”.
On to “(1S,2S,3S,4R)-3-[(1S)-1-acetylamino-2-ethyl-butyl]-4-guanidino-2-hydroxy-cyclopentyl-1-carboxylic acid dihydrate”, for which the Solubility (as a rule, how much of the substance goes into solution per volume) in series [11] was 50 mg/mL. Further, in series [1] (Relative humidity 75%), the “Hygroscopicity at the 5th day” value amounted to 2.21% and the “Hygroscopicity at the 10th day” value is 2.54%. In addition, in series [1] (setting [12]), the “Hygroscopicity at the 5th day” value worked out at 2.54% and the “Hygroscopicity at the 10th day” value came out at 2.98%.
